Here are results for 17 compounds from US20240076272A1, “Activators of Heme Regulated Inhibitor Kinase (HRI)” (The Brigham and Women`s Hospital, Inc., priority 2019, published 2024).

For data set [1], the system named is eIF2α phosphorylation (ATF-4 5′UTR luciferase reporter). In words: surrogate eIF2α phosphorylation dual-luciferase reporter (DLR) assay. It is filed as cell-based. As to conditions: F/R luciferase ratio normalized to DMSO wells (F/R=1); for fold induction at 1.25 µM: read-out: Fold stimulation of ATF-4 Surrogate eIF2α @ 1.25 μM; for fold induction at 5 µM: read-out: Fold stimulation of ATF-4 Surrogate eIF2α @ 5 μM. The text has this: The dual luciferase expression vector and other plasmids used in the Examples provided herein have been previously reported (see e.g., Ziegeler et al, J. Biol. Chem. 285 (2010) 15408-15419). The dual luciferase surrogate eIF2α phosphorylation assay, has also been previously reported (see e.g., Chen et al, Nat. Chem. Biol. 7 (2011) 610-616). Briefly, a dual Renilla and Firefly luciferase mammalian reporter vector that transcribes both mRNAs from the same bi-directional enhancer/promoter complex was utilized for generation of surrogate eIF2α phosphorylation assay (see e.g., Ziegeler et al, J. Biol. Chem. 285 (2010) 15408-15419). Both mRNAs contained the same 90 nucleotide plasmid derived 5′UTR. In addition, 5′UTR of the Firefly luciferase open reading frame was fused in-frame to the 267 nucleotide ATF-4 5′UTR (see e.g., Chen et al, Nat. Chem. Biol. 7 (2011) 610-616).
Cells expressing firefly and renilla luciferases were assayed with a dual glow luciferase assay kit, per manufacturer's instruction (Promega Inc., Madison, WI). The data calculations were carried out as the ratio of firefly to renilla luciferase signal (see e.g., Ziegeler et al, J. Biol. Chem. 285 (2010) 15408-15419). Dose-response curves were obtained, and triplicate data points were fitted to the logistical sigmoidal model using nonlinear least-squares regression performed in GraphPad Prism 6.
All newly synthesized N,N′-disubstituted ureas were initially evaluated by testing in the surrogate eIF2α phosphorylation dual-luciferase reporter (DLR) assay (see e.g., Chen et al, Nat. Chem. Biol. 7 (2011) 610-616; and Ziegeler et al, J. Biol. Chem. 285 (2010) 15408-15419). Briefly, this assay takes advantage of the fact that activated HRI phosphorylates eIF2α which inhibits eIF2 guanine nucleotide exchange factor eIF2B, responsible for exchanging the GDP in the eIF2·GDP complex for GTP. The reduction in the recycling of eIF2·GDP into eIF2·GTP interferes with the formation of eIF2·GTP·Met-tRNAi ternary complex. […] These include mRNA coding for activating transcription factor 4 (ATF-4) (see e.g., Aktas et al, Oncotarget, 4 (2013) 1606-1617; Aktas et al, Oncotarget, 6 (2015) 6902-6914; and Aktas et al, Proc. Natl. Acad. Sci. U.S.A. 95 (1998) 8280-8285).
In the present assay, firefly (F) luciferase mRNA was fused to the 5′UTR of ATF-4 mRNA that had multiple uORFs, while renilla (R) luciferase mRNA was fused to a 5′UTR lacking any uORFs. Agents that reduce the amount of the eIF2·GTP·Met-tRNAi ternary complex, such as N,N′-disubstituted ureas that activate HRI, increase F luciferase expression while reducing the R luciferase expression, resulting in an increased F/R luciferase ratio. The ureas of the present application were tested at 10 μM, 5 μM, 2.5 μM, and 1.25 μM concentrations in 96-well assay plates (see e.g., Chen et al, Nat. Chem. Biol. 7 (2011) 610-616; and Bai et al, ChemBioChem, 14 (2013) 1255-1262). The activity scores as the F/R ratios were calculated for every compound-treated well and normalized to F/R ratio of vehicle-treated (DMSO) wells in the same plate, arbitrarily set at 1 (F/R=1). Data obtained in the surrogate dual-luciferase eIF2α phosphorylation (DLR) assay for the series of 1-phenyl-3/4-(4-trifluorometyl) phenoxy-cycloalkyl)ureas (4-CF3-ΦcAlkΦUs) and 1-phenyl-3-(5-(4-(trifluoromethyl) phenoxy)pyrimidin-2-yl)ureas (4-CF3-ΦOPyΦUs) described herein are shown in Tables 1-2.

Data set [2] deals with human melanoma CRL-2813 cells. In words: sulforhodamine B (SRB) cell proliferation assay. It is filed as cell-based. As to conditions: Homo sapiens, CRL2813, 120 h, 5 days, read-out: IC50 (concentration that inhibits growth of human melanoma CRL-2813 cells by 50%). As for the experimental part: Cells were seeded in 96-well plates and maintained for 5 days in the presence of 0.5 μM to 20 μM of individual compound, and cell proliferation was measured by the sulforhodamine B (SRB) assay according to previous reports (see e.g., Palakurthi et al, Cancer Res. 60 (2000) 2919-2925): briefly, at the end of a 5-day treatment, cells were fixed in 10% cold trichloroacetic acid. Cell number was estimated by measuring the remaining bound dye of sulforhodamine B after washing. The percentage of growth was calculated by using the equation: 100×[(T-T0)/(C-T0)], where T and C represent the absorbance in treated and control cultures at Day 5, and T0 at time zero, respectively. If T was less than T0, cell death had occurred and was calculated from 100×[(T-T0)/T0].
All 4-CF3-ΦOcAlkΦUs were tested in the sulforhodamine B (SRB) cell proliferation assay to establish the concentrations that inhibit human melanoma CRL-2813 cells growth by 50% (IC50) (see Table 1). This activity reflects a combined effect of membrane permeability and overall anti-proliferative effects that include on target and off-target effects.

For orientation: melting point means the temperature of the solid-liquid transition. In the case of `N#Cc1cc(NC(=O)N[C@H]2C[C@@H](Oc3ccc(C(F)(F)F)cc3)C2)cc(C(F)(F)F)c1` [Compound 1-IVc, 1-(3-Cyano-5-(trifluoromethyl)phenyl)-3-(cis-3-(4-(trifluoromethyl)phenoxy)cyclobutyl)urea], the melting point fell in the range of 194.6 to 196.1 °C. Also, in data set [1], the “Fold stimulation of ATF-4 Surrogate eIF2α @ 1.25 μM” value turned out to be 4.3 ± 0.6 fold and the fold induction at 1.25 µM was determined as 4.3. Also, the fold induction at 5 µM in data set [1] (5 μM) turned out to be 8.4 ± 0.5. The IC50 in data set [2] was determined as 900 nM.
Turning to `N#Cc1cc(NC(=O)N[C@H]2CC[C@H](Oc3ccc(C(F)(F)F)cc3)C2)cc(C(F)(F)F)c1` [Compound 1-V, 1-(3-Cyano-5-(trifluoromethyl)phenyl)-3-((1S,3S)-3-(4-(trifluoromethyl)phenoxy)cyclopentyl)urea], the melting point fell in the range of 144.4 to 146.2 °C. Moreover, in data set [1], the “Fold stimulation of ATF-4 Surrogate eIF2α @ 1.25 μM” value was determined as 3.1 ± 0.7 fold and the fold induction at 1.25 µM was 3.1. Also, in data set [1] (5 μM), the “Fold stimulation of ATF-4 Surrogate eIF2α @ 5 μM” value was 8.3 ± 2.4 fold and the fold induction at 5 µM was 8.3. In addition, the IC50 in data set [2] turned out to be 1200 nM.
On to `N#Cc1cc(NC(=O)Nc2ncc(Oc3ccc(C(F)(F)F)cc3)cn2)cc(C(F)(F)F)c1` [Compound 1-py, 1-(3-Cyano-5-(trifluoromethyl)phenyl)-3-(5-(4-(trifluoromethyl)phenoxy)pyrimidin-2-yl)urea], for which the melting point was in the range of 263.5 to 265.5 °C.
`O=C(Nc1cccc(C(F)(F)F)c1)N[C@H]1C[C@H](Oc2ccc(C(F)(F)F)cc2)C1` [Compound 2-IV, 1-(trans-3-(4-(Trifluoromethyl)phenoxy)cyclobutyl)-3-(3-(trifluoromethyl)phenyl)urea] gave a melting point of 171.8 to 174.6 °C. Also, the fold induction at 1.25 µM in data set [1] was found to be 2.4 ± 0.6. Besides, the fold induction at 5 µM in data set [1] (5 μM) was found to be 6.5 ± 1.2. Further, the IC50 in data set [2] came to 3400 ± 1000 nM.
The like results for `O=C(Nc1cccc(C(F)(F)F)c1)N[C@H]1C[C@@H](Oc2ccc(C(F)(F)F)cc2)C1` [Compound 2-IVc, 1-(cis-3-(4-(Trifluoromethyl)phenoxy)cyclobutyl)-3-(3-(trifluoromethyl)phenyl)urea] were, in that order, 166.6 to 168.5 °C, 1.2 ± 0.3, 6.2 ± 1.2 and 2600 ± 400 nM.
The compound `O=C(Nc1cccc(C(F)(F)F)c1)N[C@H]1CC[C@H](Oc2ccc(C(F)(F)F)cc2)C1` [Compound 2-V] showed a melting point of 123.5 to 125.3 °C. Also, the fold induction at 1.25 µM in data set [1] came to 1.2 ± 0.4. The fold induction at 5 µM in data set [1] (5 μM) came to 7 ± 0.9. Besides, in data set [2], the IC50 stood at 2500 ± 500 nM.
`O=C(Nc1cccc(C(F)(F)F)c1)Nc1ncc(Oc2ccc(C(F)(F)F)cc2)cn1` [Compound 2-py, 1-(5-(4-(Trifluoromethyl)phenoxy)pyrimidin-2-yl)-3-(3-(trifluoromethyl)phenyl)urea]: the melting point was 232.5 to 234.8 °C.
Consider `N#Cc1cccc(NC(=O)N[C@H]2C[C@H](Oc3ccc(C(F)(F)F)cc3)C2)c1` [Compound 3-IV, 1-(3-Cyanophenyl)-3-(trans-3-(4-(trifluoromethyl)phenoxy)cyclobutyl)urea], for which the melting point was in the range of 181.1 to 182.3 °C. In data set [1], the “Fold stimulation of ATF-4 Surrogate eIF2α @ 1.25 μM” value was found to be 1.6 ± 0.2 fold and the fold induction at 1.25 µM came to 1.6. The fold induction at 5 µM in data set [1] (5 μM) came out at 3.5 ± 0.4. For the same compound, the IC50 in data set [2] came out at 4900 nM.
The like results for `N#Cc1cccc(NC(=O)N[C@H]2C[C@@H](Oc3ccc(C(F)(F)F)cc3)C2)c1` [Compound 3-IVc, 1-(3-Cyanophenyl)-3-(cis-3-(4-(trifluoromethyl)phenoxy)cyclobutyl)urea] were, in that order, 203.7 to 206.8 °C, 1.1 ± 0.2 fold, 1.1, 0.9 ± 0.1 and greater than 10000 nM.
Take `N#Cc1cccc(NC(=O)N[C@H]2CC[C@H](Oc3ccc(C(F)(F)F)cc3)C2)c1` [Compound 3-V]: the melting point is 160.2 to 162.1 °C. Moreover, the fold induction at 1.25 µM in data set [1] stood at 0.8 ± 0.2. Also, the fold induction at 5 µM in data set [1] (5 μM) came out at 1.6 ± 0.2. In addition, the IC50 in data set [2] was 6500 ± 2300 nM.
For the compound `N#Cc1cccc(NC(=O)Nc2ncc(Oc3ccc(C(F)(F)F)cc3)cn2)c1` [Compound 3-py, 1-(3-Cyanophenyl)-3-(5-(4-(trifluoromethyl)phenoxy)pyrimidin-2-yl) urea], the melting point was 260.2 to 261.5 °C.
`N#Cc1cc(F)cc(NC(=O)N[C@H]2C[C@H](Oc3ccc(C(F)(F)F)cc3)C2)c1` [Compound 4-IV, 1-(3-Cyano-5-fluorophenyl)-3-(trans-3-(4-(trifluoromethyl)phenoxy)cyclobutyl)urea] registered a melting point of 182.8 to 185 °C. The fold induction at 1.25 µM in data set [1] came out at 2 ± 0.4. Also, the fold induction at 5 µM in data set [1] (5 μM) came out at 5.3 ± 0.6. Besides, the IC50 in data set [2] was 2800 ± 1300 nM.
The compound `N#Cc1cc(F)cc(NC(=O)N[C@H]2CC[C@H](Oc3ccc(C(F)(F)F)cc3)C2)c1` [Compound 4-V] displayed a melting point of 176.2 to 177.8 °C. In addition, the fold induction at 1.25 µM in data set [1] worked out at 2.4 ± 0.3. The fold induction at 5 µM in data set [1] (5 μM) amounted to 8 ± 2. Moreover, the IC50 in data set [2] is 1900 ± 1300 nM.
`N#Cc1cc(F)cc(NC(=O)Nc2ncc(Oc3ccc(C(F)(F)F)cc3)cn2)c1` [Compound 4-py, 1-(3-Cyano-5-fluorophenyl)-3-(5-(4-(trifluoromethyl)phenoxy)pyrimidin-2-yl)urea] yielded a melting point of 267.5 to 270 °C.
`Cc1ccc(F)cc1NC(=O)N[C@H]1C[C@H](Oc2ccc(C(F)(F)F)cc2)C1` [Compound 7-IV, 1-(5-Fluoro-2-methylphenyl)-3-(trans-3-(4-(trifluoromethyl)phenoxy)cyclobutyl)urea] gave a melting point of 204.2 to 206 °C. Also, the fold induction at 1.25 µM in data set [1] was determined as 0.7 ± 0.2. Moreover, the fold induction at 5 µM in data set [1] (5 μM) came to 1.4 ± 0.1. Also, in data set [2], the IC50 was greater than 10000 nM.
`Cc1ccc(F)cc1NC(=O)Nc1ncc(Oc2ccc(C(F)(F)F)cc2)cn1` [Compound 7-py, 1-(5-Fluoro-2-methylphenyl)-3-(5-(4-(trifluoromethyl)phenoxy)pyrimidin-2-yl)urea] registered a melting point of 224.2 to 226.5 °C.
Consider `O=C(Nc1ccc(F)c(F)c1)Nc1ncc(Oc2ccc(C(F)(F)F)cc2)cn1` [Compound 10-py, 1-(3,4-Difluorophenyl)-3-(5-(4-(trifluoromethyl)phenoxy)pyrimidin-2-yl) urea], for which the melting point lay in the range of 224.8 to 226.2 °C.
